Data published in patent publication US8288385B2, “6-(3-aza-bicyclo[3.1.0]hex-3-yl)-2-phenyl-pyrimidines” (Actelion Pharmaceuticals Ltd., priority 2009, dated 2012).

Molecular target: T1, human P2Y12 receptor (Homo sapiens, UniProt Q9H244)
T1 construct: expressed in transfected cells; host or cells: Chinese Hamster Ovary (CHO) cells
Test: P2Y12 receptor binding assay
Conditions: CHO cells with recombinant expression of the human P2Y12 receptor; tritium-labeled 2-methyl-S-ADP; RT, 2 hours
Procedure: P2Y12 Receptor Binding Assay
Chinese Hamster Ovary (CHO) cells with recombinant expression of the human P2Y12 receptor were cultured in 24 well cell-culture plates. Cells were washed three times with binding buffer (50 mM Tris pH 7.4, 100 mM NaCl, 1 mM EDTA, 0.5% BSA). The cells were then incubated with 0.5 ml per well binding buffer containing tritium-labeled 2-methyl-thio-adenosine 5′-diphosphate (2-methyl-S-ADP) (between 100,000 and 300,000 dpm per well) and various concentrations of test compounds. After incubation at RT for 2 hours, cells were washed three times with binding buffer. Then, cells were solubilized by addition of 0.5 ml solubilization buffer (SDS, NaOH, EDTA). The content of each well was then transferred into beta-counter vials and 2.0 ml of Ultima Gold Scintillation liquid was added.

T1 sequence (Q9H244 whole entry): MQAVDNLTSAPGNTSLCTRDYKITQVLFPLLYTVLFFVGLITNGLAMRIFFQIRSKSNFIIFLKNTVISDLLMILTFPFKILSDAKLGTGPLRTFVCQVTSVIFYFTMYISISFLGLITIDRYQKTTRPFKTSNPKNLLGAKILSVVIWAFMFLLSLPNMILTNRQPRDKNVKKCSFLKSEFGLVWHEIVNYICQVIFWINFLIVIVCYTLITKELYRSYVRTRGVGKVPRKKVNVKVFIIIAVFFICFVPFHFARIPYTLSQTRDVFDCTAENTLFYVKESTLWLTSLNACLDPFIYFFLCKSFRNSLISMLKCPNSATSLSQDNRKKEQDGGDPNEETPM

| Compound | IC50 [nM] |
| --- | --- |
| CCCCOC(=O)N1CCN(C(=O)[C@@H](NC(=O)c2cc(N3C[C@@H]4[C@@H](CCC(=O)O)[C@@H]4C3)nc(-c3ccccc3)n2)C(C)C)CC1 [Example 27, 4-[(S)-2-({6-[(1α,5α,6α)-6-(2-Carboxy-ethyl)-3-aza-bicyclo[3.1.0]hex-3-yl]-2-phenyl-pyrimidine-4-carbonyl}-amino)-3-methyl-butyryl]-piperazine-1-carboxylic acid butyl ester] | 151 |
| CCCCOC(=O)N1CCN(C(=O)[C@@H](NC(=O)c2cc(N3C[C@@H]4[C@H](C3)[C@@H]4C(N)=O)nc(-c3ccccc3)n2)C(C)C)CC1 [Example 20, 4-((S)-2-{[6-((1α,5α,6β)-6-Carbamoyl-3-aza-bicyclo[3.1.0]hex-3-yl)-2-phenyl-pyrimidine-4-carbonyl]-amino}-3-methyl-butyryl)-piperazine-1-carboxylic acid butyl ester] | 20 |
| CCCCOC(=O)N1CCN(C(=O)[C@H](CP(=O)(OCOC(C)=O)OCOC(C)=O)NC(=O)c2cc(N3C[C@@H]4[C@H](C3)[C@H]4C(=O)OCC)nc(-c3ccccc3)n2)CC1 [Example 52, (1α,5α,6α)-3-{6-[(R)-1-(Bis-acetoxymethoxy-phosphorylmethyl)-2-(4-butoxycarbonyl-piperazin-1-yl)-2-oxo-ethylcarbamoyl]-2-phenyl-pyrimidin-4-yl}-3-aza-bicyclo[3.1.0]hexane-6-carboxylic acid ethyl ester] | 4 |
| CCCCOC(=O)N1CCN(C(=O)[C@@H](NC(=O)c2cc(N3C[C@@H]4[C@H](C3)[C@@H]4C(=O)O)nc(-c3ccccc3)n2)C2CC2)CC1 [Example 41, (1α,5α,6β)-3-{6-[(S)-2-(4-Butoxycarbonyl-piperazin-1-yl)-1-cyclopropyl-2-oxo-ethylcarbamoyl]-2-phenyl-pyrimidin-4-yl}-3-aza-bicyclo[3.1.0]hexane-6-carboxylic acid] | 22 |
| CCCCCOC(=O)N1CCN(C(=O)[C@@H](NC(=O)c2cc(N3C[C@@H]4[C@H](C3)[C@@H]4C(=O)O)nc(-c3ccccc3)n2)C(C)C)CC1 [Example 15, (1α,5α,6β)-3-{6-[(S)-2-Methyl-1-(4-pentyloxycarbonyl-piperazine-1-carbonyl)-propylcarbamoyl]-2-phenyl-pyrimidin-4-yl}-3-aza-bicyclo[3.1.0]hexane-6-carboxylic acid] | 15 |
| CCCCOC(=O)N1CCN(C(=O)[C@H](CCCC)NC(=O)c2cc(N3C[C@@H]4[C@H](C3)[C@@H]4C(=O)O)nc(-c3ccccc3)n2)CC1 [Example 38, (1α,5α,6β)-3-{6-[(S)-1-(4-Butoxycarbonyl-piperazine-1-carbonyl)-pentylcarbamoyl]-2-phenyl-pyrimidin-4-yl}-3-aza-bicyclo[3.1.0]hexane-6-carboxylic acid] | 136 |
| CCCCOC(=O)N1CCN(C(=O)[C@H](Cc2ccccc2)NC(=O)c2cc(N3CC4C(C3)C4C(=O)O)nc(-c3ccccc3)n2)CC1 (stereo partly drawn) [Example 46, (1α,5α,6α)-3-{6-[(S)-1-Benzyl-2-(4-butoxycarbonyl-piperazin-1-yl)-2-oxo-ethylcarbamoyl]-2-phenyl-pyrimidin-4-yl}-3-aza-bicyclo[3.1.0]hexane-6-carboxylic acid] | 961 |
| CCCCOC(=O)N1CCN(C(=O)[C@@H](NC(=O)c2cc(N3C[C@@H]4[C@H](CC(=O)O)[C@@H]4C3)nc(-c3ccccc3)n2)C(C)C)CC1 [Example 25, 4-((S)-2-{[6-((1α,5α,6β)-6-Carboxymethyl-3-aza-bicyclo[3.1.0]hex-3-yl)-2-phenyl-pyrimidine-4-carbonyl]-amino}-3-methyl-butyryl)-piperazine-1-carboxylic acid butyl ester] | 13 |
| CCCCOC(=O)N1CCN(C(=O)[C@H](CCC(=O)O)NC(=O)c2cc(N3C[C@@H]4[C@H](C3)[C@H]4C(=O)OCC)nc(-c3ccccc3)n2)CC1 [Example 3, (1α,5α,6α)-3-{6-[(S)-1-(4-Butoxycarbonyl-piperazine-1-carbonyl)-3-carboxy-propylcarbamoyl]-2-phenyl-pyrimidin-4-yl}-3-aza-bicyclo[3.1.0]hexane-6-carboxylic acid ethyl ester] | 8.7 |
| CCCCOC(=O)N1CCN(C(=O)[C@H](CCC(=O)O)NC(=O)c2cc(N3C[C@@H]4[C@@H](COC)[C@@H]4C3)nc(-c3ccccc3)n2)CC1 [Example 10, 4-((S)-4-Carboxy-2-{[6-((1α,5α,6α)-6-methoxymethyl-3-aza-bicyclo[3.1.0]hex-3-yl)-2-phenyl-pyrimidine-4-carbonyl]-amino}-butyryl)-piperazine-1-carboxylic acid butyl ester] | 6.6 |
| CCCCOC(=O)N1CCN(C(=O)[C@H](CCC(=O)O)NC(=O)c2cc(N3C[C@@H]4[C@H](N)[C@@H]4C3)nc(-c3ccccc3)n2)CC1 [Example 8, 4-((S)-2-{[6-((1α,5α,6β)-6-Amino-3-aza-bicyclo[3.1.0]hex-3-yl)-2-phenyl-pyrimidine-4-carbonyl]-amino}-4-carboxy-butyryl)-piperazine-1-carboxylic acid butyl ester] | 7 |
| CCCCOC(=O)N1CCN(C(=O)[C@@H](NC(=O)c2cc(N3C[C@@H]4[C@H](C3)[C@H]4c3nnn[nH]3)nc(-c3ccccc3)n2)C(C)C)CC1 [Example 19] | 12 |
| CCCCOC(=O)N1CCN(C(=O)[C@@H](NC(=O)c2cc(N3C[C@@H]4[C@H](C3)[C@H]4C(=O)O)nc(-c3ccccc3)n2)C(C)(C)C)CC1 [Example 44, (1α,5α,6α)-3-{6-[(S)-1-(4-Butoxycarbonyl-piperazine-1-carbonyl)-2,2-dimethyl-propylcarbamoyl]-2-phenyl-pyrimidin-4-yl}-3-aza-bicyclo[3.1.0]hexane-6-carboxylic acid] | 903 |
| CCCCOC(=O)N1CCN(C(=O)[C@H](C)NC(=O)c2cc(N3C[C@@H]4[C@H](C3)[C@@H]4C(=O)O)nc(-c3ccccc3)n2)CC1 [Example 35, (1α,5α,6β)-3-{6-[(S)-2-(4-Butoxycarbonyl-piperazin-1-yl)-1-methyl-2-oxo-ethylcarbamoyl]-2-phenyl-pyrimidin-4-yl}-3-aza-bicyclo[3.1.0]hexane-6-carboxylic acid] | 51 |
| CCCCOC(=O)N1CCN(C(=O)[C@@H](NC(=O)c2cc(N3C[C@@H]4[C@H](C#N)[C@@H]4C3)nc(-c3ccccc3)n2)C(C)C)CC1 [Example 21, 4-((S)-2-{[6-((1α,5α,6β)-6-Cyano-3-aza-bicyclo[3.1.0]hex-3-yl)-2-phenyl-pyrimidine-4-carbonyl]-amino}-3-methyl-butyryl)-piperazine-1-carboxylic acid butyl ester] | 10 |
| CCCCOC(=O)N1CCN(C(=O)[C@@H](NC(=O)c2cc(N3C[C@@H]4[C@H](C3)[C@@H]4C(=O)O)nc(-c3cccc(C(F)(F)F)c3)n2)C(C)C)CC1 [Example 30, (1α,5α,6β)-3-[6-[(S)-1-(4-Butoxycarbonyl-piperazine-1-carbonyl)-2-methyl-propylcarbamoyl]-2-(3-trifluoromethyl-phenyl)-pyrimidin-4-yl]-3-aza-bicyclo[3.1.0]hexane-6-carboxylic acid] | 250 |
| CCCCOC(=O)N1CCN(C(=O)CNC(=O)c2cc(N3C[C@@H]4[C@H](C3)[C@@H]4C(=O)O)nc(-c3ccccc3)n2)CC1 [Example 33, (1α,5α,6β)-3-{6-[2-(4-Butoxycarbonyl-piperazin-1-yl)-2-oxo-ethylcarbamoyl]-2-phenyl-pyrimidin-4-yl}-3-aza-bicyclo[3.1.0]hexane-6-carboxylic acid] | 68 |
| CCCCOC(=O)N1CCN(C(=O)[C@H](CCC(=O)O)NC(=O)c2cc(N3C[C@@H]4[C@H](C3)[C@H]4C(=O)O)nc(-c3ccccc3)n2)CC1 [Example 1, (1α,5α,6α)-3-{6-[(S)-1-(4-Butoxycarbonyl-piperazine-1-carbonyl)-3-carboxy-propylcarbamoyl]-2-phenyl-pyrimidin-4-yl}-3-aza-bicyclo[3.1.0]hexane-6-carboxylic acid] | 10 |
| CCCCOC(=O)N1CCN(C(=O)[C@H](CP(=O)(N[C@@H](C)C(=O)OCC)N[C@@H](C)C(=O)OCC)NC(=O)c2cc(N3C[C@@H]4[C@H](C3)[C@H]4C(=O)OCC)nc(-c3ccccc3)n2)CC1 [Example 53, N,N′-Bis-((S)-1-Ethoxycarbonylethyl)-(R)-2-[(4-[(1α,5α,6α)-6-ethoxycarbonyl-3-aza-bicyclo[3.1.0]hex-3-yl]-2-phenyl-pyrimidin-6-carbonyl)-amino]-3-oxo-3-(4-butoxy-carbonyl-piperazin-1-yl)-propyl-phosphonic acid diamide] | 110 |
| CCOC(=O)N1CCN(C(=O)C(NC(=O)c2cc(N3CC4C(C3)C4C(=O)O)nc(-c3ccccc3)n2)C(C)C)CC1 [Example 13, (1α,5α,6β)-3-{6-[(S)-1-(4-Ethoxycarbonyl-piperazine-1-carbonyl)-2-methyl-propylcarbamoyl]-2-phenyl-pyrimidin-4-yl}-3-aza-bicyclo[3.1.0]hexane-6-carboxylic acid] | 96 |
| CCCCOC(=O)N1CCN(C(=O)[C@H](CC2CC2)NC(=O)c2cc(N3C[C@@H]4[C@H](C3)[C@@H]4C(=O)O)nc(-c3ccccc3)n2)CC1 [Example 40, (1α,5α,6β)-3-{6-[(S)-2-(4-Butoxycarbonyl-piperazin-1-yl)-1-cyclopropylmethyl-2-oxo-ethylcarbamoyl]-2-phenyl-pyrimidin-4-yl}-3-aza-bicyclo[3.1.0]hexane-6-carboxylic acid] | 143 |
| CCCCOC(=O)N1CCN(C(=O)[C@@H](NC(=O)c2cc(N3C[C@@H]4[C@H](CCC(=O)O)[C@@H]4C3)nc(-c3ccccc3)n2)C(C)C)CC1 [Example 26, 4-[(S)-2-({6-[(1α,5α,6β)-6-(2-Carboxy-ethyl)-3-aza-bicyclo[3.1.0]hex-3-yl]-2-phenyl-pyrimidine-4-carbonyl}-amino)-3-methyl-butyryl]-piperazine-1-carboxylic acid butyl ester] | 59 |
